# Reference: patent publication US20240208896A1, “PRODRUGS OF KV7 CHANNEL OPENERS” (Xyzagen, Inc., priority 2021, published 2024)
# Like-named read-outs stand apart in the source and are kept apart here.
# Experiments:
# [1] = Pharmacokinetics of ezogabine prodrugs in mouse (SC, PO); conditions: male mice, PO 20 mg/kg, analyte Cmpd 1
# Experimental: (§1) Blood was diluted by 10% with these stabilizers.
# (§2) Extraction of the molecules was conducted by taking a 50 uL aliquot of plasma and adding 200 uL of acetonitrile containing 200 ng/mL tolbutamide as the internal standard. Samples were precipitated in a 96 well plate, centrifuges and an aliquot transferred to a new plate, dried down under heat and nitrogen and then reconstituted in the initial mobile phase conditions of the LC-MS/MS method. […] A standard curve was prepared from 5000 ng/mL to 1 ng/mL for each analyte. Concentration data from the bioanalytical run was analyzed by Phoenix Winnonlin version 8 for noncompartmental sparse sampling PK analysis, plotting of concentration time curves and tabulation of PK parameters.
# Animals were asphyxiated by carbon dioxide gas, blood was collected by cardiac stick and they were euthanized by cervical dislocation.
# [2] = Pharmacokinetics of ezogabine prodrugs in rat (IV, IM, PO); conditions: male SD rat, PO 20 mg/kg, analyte Cmpd 1
# Experimental: as §1
# as §2, with “noncompartmental” for “noncompartmental sparse sampling”
# 150 uL of blood were collected at predesignated time points. At completion of the study animals were asphyxiated by carbon dioxide gas and exsanguinated for euthanasia.
# Human Kv7.2/7.3 = Human Kv7.2/7.3 (Homo sapiens, UniProt O43525+O43526); experiment: In vitro screen of Kv7.2/7.3 voltage gated potassium channels (FluxOR, FLIPR); assay type: cell-based
# Chain of Human Kv7.2/7.3 (O43526 whole entry): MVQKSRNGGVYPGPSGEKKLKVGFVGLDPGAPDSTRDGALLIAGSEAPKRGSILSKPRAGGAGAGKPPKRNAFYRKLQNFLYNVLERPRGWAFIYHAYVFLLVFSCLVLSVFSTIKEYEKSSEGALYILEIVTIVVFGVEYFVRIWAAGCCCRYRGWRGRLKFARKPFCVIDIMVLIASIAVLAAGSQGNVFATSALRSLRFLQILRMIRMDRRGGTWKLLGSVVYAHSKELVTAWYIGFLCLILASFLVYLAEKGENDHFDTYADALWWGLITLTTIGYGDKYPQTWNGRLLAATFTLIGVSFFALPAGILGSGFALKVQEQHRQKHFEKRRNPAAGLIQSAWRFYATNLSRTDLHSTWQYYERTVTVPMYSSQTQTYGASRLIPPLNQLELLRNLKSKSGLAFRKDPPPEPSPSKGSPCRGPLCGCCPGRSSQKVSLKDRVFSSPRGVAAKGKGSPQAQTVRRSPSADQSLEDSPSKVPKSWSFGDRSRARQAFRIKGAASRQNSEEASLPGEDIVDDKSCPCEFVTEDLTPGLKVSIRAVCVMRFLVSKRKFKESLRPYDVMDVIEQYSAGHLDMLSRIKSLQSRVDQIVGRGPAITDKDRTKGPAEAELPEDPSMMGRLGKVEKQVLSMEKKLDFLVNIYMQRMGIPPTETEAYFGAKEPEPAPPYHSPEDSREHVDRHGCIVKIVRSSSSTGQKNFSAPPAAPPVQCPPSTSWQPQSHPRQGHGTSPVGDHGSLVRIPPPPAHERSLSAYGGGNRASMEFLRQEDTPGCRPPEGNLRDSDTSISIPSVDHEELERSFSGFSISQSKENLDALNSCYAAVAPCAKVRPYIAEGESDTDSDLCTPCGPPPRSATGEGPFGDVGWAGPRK
# Chain of Human Kv7.2/7.3 (O43525 whole entry): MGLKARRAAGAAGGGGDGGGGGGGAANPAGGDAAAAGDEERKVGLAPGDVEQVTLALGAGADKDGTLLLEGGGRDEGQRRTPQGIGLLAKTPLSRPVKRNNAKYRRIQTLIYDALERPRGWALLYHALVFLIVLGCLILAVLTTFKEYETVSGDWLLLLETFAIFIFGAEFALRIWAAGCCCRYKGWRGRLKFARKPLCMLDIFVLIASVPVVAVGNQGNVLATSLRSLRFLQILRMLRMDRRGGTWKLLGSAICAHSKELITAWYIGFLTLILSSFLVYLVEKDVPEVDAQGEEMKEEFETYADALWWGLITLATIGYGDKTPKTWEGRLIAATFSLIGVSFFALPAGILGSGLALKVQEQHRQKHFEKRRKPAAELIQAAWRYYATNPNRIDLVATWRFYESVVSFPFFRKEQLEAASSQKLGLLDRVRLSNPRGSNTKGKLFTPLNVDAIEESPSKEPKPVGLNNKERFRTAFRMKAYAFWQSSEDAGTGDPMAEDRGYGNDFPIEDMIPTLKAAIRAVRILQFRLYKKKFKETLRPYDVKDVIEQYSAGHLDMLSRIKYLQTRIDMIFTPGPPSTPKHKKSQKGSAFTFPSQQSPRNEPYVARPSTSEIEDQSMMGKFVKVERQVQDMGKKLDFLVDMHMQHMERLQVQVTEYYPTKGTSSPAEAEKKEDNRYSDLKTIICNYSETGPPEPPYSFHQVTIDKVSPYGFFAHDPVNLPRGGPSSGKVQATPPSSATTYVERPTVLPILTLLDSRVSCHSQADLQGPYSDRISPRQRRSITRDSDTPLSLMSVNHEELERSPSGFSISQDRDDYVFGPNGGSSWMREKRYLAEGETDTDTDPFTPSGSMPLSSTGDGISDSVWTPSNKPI
# Experimental: Human Kv7.2/7.3 cells are harvested, counted and seeded in black, clear-bottomed 96 well plates at a density of 50,000 cells per well in 100 μl volume and incubated overnight. The following day, media was removed and 40 μl of loading buffer (4.895 mL HBSS:HEPES, 50 μL probenecid, 50 μL power load, 5 μl FluxOR reagent) was added and incubated at room temperature for 30 minutes. After incubation loading buffer was removed and 40 μl of assay buffer added (4.45 ml HBSS:HEPES, 500 μl FluxOR assay buffer and 50 μL probenecid) and incubated for 10 minutes.
# [3] = assay type: physicochemical; conditions: for % Conversion to dimer / Concentration of dimer: 8 mg/mL in SGF, 38° C.
# Text: The structure of the dimer is presented.
# [4] = Acid and organic solution stability, HPLC-UV 250 nm; conditions: 5 mg/mL; for Colour of stability solution: room temperature; for Ezogabine Area (formed from the prodrug): 440 h
# Experimental: An HPLC-UV Vis method was developed using 0.1% Formic acid in water as mobile phase A and 0.1% Formic acid in acetonitrile as mobile Phase B. A gradient method was developed ramping from 10% A to 90% B over 8 minutes and then returning to 10% A at 8.5 minutes on a 4.6×50 mm Zorbax C-18 column. Injections of 10 uL of stability solutions were injected for analyte detection.
# […] Aliquots were collected at serial time points and then diluted to a nominal concentration of 100 ug/mL for injection to the HPLC and 250 nm monitored by the diode array detector. Data at approximately 10 days is presented.
# Aliquots were collected at serial time points and then diluted to a nominal concentration of 100 ug/mL for injection to the HPLC and 250 nm monitored by the diode array detector.
# (§3) It was also evaluated at 2 N HCl at 37° C. Aliquots were collected at serial time points and then diluted to a nominal concentration of 100 ug/mL for injection to the HPLC and 250 nm monitored by the diode array detector.
# as §3, §3, §3
# [5] = known value, cited from earlier work
# [6] = in solvent, exposed to light; known; cited from earlier work
# [7] = patients receiving ezogabine (POTIGA); Potiga label; cited from earlier work
# [8] = Rat PK at equimolar dose to Ezogabine (20 mg/kg) in 0.5% methylcellulose; conditions: male cannulated rats; equimolar to Ezogabine 20 mg/kg; 0.5% methylcellulose; analyte the dosed prodrug
# Experimental: (§4) Blood samples were collected at the same time points over 24 hours to generate a concentration time profile. Two male rats were dosed per group. Plasma samples were analyzed by LC/MS/MS and the resulting concentration time profiles and PK parameters are provided.
# as §4, §4
# MES induced seizures = experiment: MES assay in CF-1 mice, Compound 28 IP dose response; assay type: in vivo, CF-1 mouse; conditions: for Animals protected from MES induced seizures: 30 minutes after administration
structure (smiles),measurement,setting,value
"CCOC(=O)Nc1ccc(NCc2ccc(F)cc2)cc1N [Compound 1, Ezogabine]",Cmax/D,[1],148 ng/mL/mg/kg
same,AUClast/D,[1]; 6 h,190 ng·h/mL/mg/kg
same,Cmax/D,[2],44.8 ng/mL/mg/kg
same,AUClast/D,[2]; 24 h,280 ng·h/mL/mg/kg
same,EC50,Human Kv7.2/7.3,1600 nM
same,% Conversion to dimer,[3]; Time 0,0%
same,Concentration of dimer,[3]; Time 0,0.00 ng/mL
same,% Conversion to dimer,[3]; Time 1 h,0.250%
same,Concentration of dimer,[3]; Time 1 h,19.5 ng/mL
same,% Conversion to dimer,[3]; Time 4 h,7.95%
same,Concentration of dimer,[3]; Time 4 h,623 ng/mL
same,% Conversion to dimer,[3]; Time 8 h,25.2%
same,Concentration of dimer,[3]; Time 8 h,1980 ng/mL
same,Stability at low pH,[3]; low pH (1 N HCl) and simulated gastric fluid,degrades and forms a chromophore dimer
same,% Remaining,"[4]; 0.1N HCl, room temp., normal light, 267 h",50.7%
same,% Remaining,"[4]; 1N HCl, room temp., normal light, 267 h",68.2%
same,% Remaining,"[4]; Acetonitrile, room temp., normal light, 219 h",44.9%
same,% Remaining,"[4]; Methanol, room temp., normal light, 267 h",41.3%
same,Colour of stability solution,[4]; acid solutions,turning light purple (indicating degradation) by Day 2
same,Colour of stability solution,[4]; organic solvents,did not begin turning purple until Day 7
same,Solubility,[5]; 0.1N NaCl,40 µg/mL
same,Solubility,[5]; 0.1N NaOH,40 µg/mL
same,Solubility,[5]; Ethanol,20000 µg/mL
same,Solubility,[5]; Methanol,54000 µg/mL
same,Solubility,[5]; Water,50 µg/mL
same,Solubility,"[5]; listed as 0.1 Na2HPO4, determined in 0.1N K2HPO4",180 µg/mL
same,Time to degradation with light,[6],3 to 7 days
same,Adverse reaction: abnormal coordination,[7],7%
same,Adverse reaction: aphasia,[7],4%
same,Adverse reaction: asthenia,[7],5%
same,Adverse reaction: balance disorder,[7],4%
same,Adverse reaction: blurred vision,[7],5%
same,Adverse reaction: confusional state,[7],9%
same,Adverse reaction: diplopia,[7],7%
same,Adverse reaction: disturbance in attention,[7],6%
same,Adverse reaction: dizziness,[7],23%
same,Adverse reaction: dysarthria,[7],4%
same,Adverse reaction: fatigue,[7],15%
same,Adverse reaction: gait disturbance,[7],4%
same,Adverse reaction: memory impairment,[7],6%
same,Adverse reaction: somnolence,[7],22%
same,Adverse reaction: tremor,[7],8%
same,Adverse reaction: vertigo,[7],8%
CCOC(=O)Nc1ccc(NCc2ccc(F)cc2)cc1NC(=O)C[C@@H](CN)CC(C)C [Compound 28],AUClast/D,[8],83.0 ng·h/mL/mg/kg
same,Cmax/D,[8],9.31 ng/mL/mg/kg
same,Animals protected from MES induced seizures,MES induced seizures; IP 12 mg/kg,1 of 9
same,Animals protected from MES induced seizures,MES induced seizures; IP 24 mg/kg,3 of 9
same,Protection against MES induced seizures,"MES induced seizures; IP 1.5, 3, 6, 12 and 24 mg/kg",None of the doses showed complete protection
same,Ezogabine Area (formed from the prodrug),"[4]; 0.1N HCl, room temp., normal light",0 mAU
same,Ezogabine Area (formed from the prodrug),"[4]; 1N HCl, room temp., normal light",568 mAU
same,Ezogabine Area (formed from the prodrug),[4]; 2N HCl 37C,3593 mAU
same,Ezogabine Area (formed from the prodrug),"[4]; 2N HCl, room temp., normal light",1462 mAU
same,Ezogabine Area (formed from the prodrug),"[4]; Acetonitrile, room temp., normal light",248 mAU
same,Ezogabine Area (formed from the prodrug),"[4]; Methanol, room temp., normal light",0 mAU
same,Degradation / conversion to ezogabine in solution,"[4]; acidic solutions and organic solvents, up to 3 weeks",exhibits degradation to ezogabine with increasing strength of the acidic solution
